Assay results taken from patent US8952024B2, “Herbicidal pyrimidone derivatives” (E I du Pont de Nemours and Company, priority 2009, dated 2015).

Columns and labels:
Assay type in all cases: in vivo
[1] = tested on: large crabgrass (Digitaria sanguinalis); assay: Test B pre-/postemergence plant response
Method in brief: (§1)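 Seeds were sown in loam soil/sand blend and treated preemergence with compound in non-phytotoxic solvent mixture containing surfactant; postemergence sprays, same formulation, went onto plants 2 to 18 cm (1- to 4-leaf stage) in peat-based planting medium. Greenhouse 13 to 15 days, then visual rating versus untreated controls, 0 (no effect) to 100 (complete control).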

[2] = tested on: Surinam grass (Brachiaria decumbens); assay: Test B pre-/postemergence plant response; settings: for Plant response rating, Surinam Grass: Postemergence, scale 0 to 100 (0 no effect, 100 complete control)
Method in brief: as §1

[3] = tested on: ragweed (common ragweed, Ambrosia elatior); assay: Test B pre-/postemergence plant response; settings: for Plant response rating, Ragweed: Postemergence, scale 0 to 100 (0 no effect, 100 complete control)
Method in brief: as §1

wild oat (Avena fatua) = assay: Test B pre-/postemergence plant response
Method in brief: as §1

[4] = tested on: blackgrass (Alopecurus myosuroides); assay: Test B pre-/postemergence plant response
Method in brief: as §1

[5] = tested on: woolly cupgrass (Eriochloa villosa); assay: Test B pre-/postemergence plant response; settings: for Plant response rating, Cupgrass, Woolly: Postemergence, scale 0 to 100 (0 no effect, 100 complete control)
Method in brief: as §1

soybean (Glycine max) = assay: Test B pre-/postemergence plant response; settings: for Plant response rating, Soybean: Postemergence, scale 0 to 100 (0 no effect, 100 complete control)
Method in brief: as §1

[6] = tested on: bermudagrass (Cynodon dactylon); assay: Test B pre-/postemergence plant response
Method in brief: as §1

[7] = tested on: Italian ryegrass (Lolium multiflorum); assay: Test B pre-/postemergence plant response; settings: for Plant response rating, Ryegrass, Italian: Postemergence, scale 0 to 100 (0 no effect, 100 complete control)
Method in brief: as §1

corn (Zea mays) = assay: Test B pre-/postemergence plant response
Method in brief: as §1

[8] = tested on: lambsquarters (Chenopodium album); assay: Test B pre-/postemergence plant response
Method in brief: as §1

[9] = tested on: velvetleaf (Abutilon theophrasti); assay: Test B pre-/postemergence plant response; settings: for Plant response rating, Velvetleaf: Postemergence, scale 0 to 100 (0 no effect, 100 complete control)
Method in brief: as §1

[10] = tested on: johnsongrass (Sorghum halepense); assay: Test B pre-/postemergence plant response
Method in brief: as §1

[11] = tested on: yellow nutsedge (Cyperus esculentus); assay: Test B pre-/postemergence plant response; settings: for Plant response rating, Nutsedge, Yellow: Postemergence, scale 0 to 100 (0 no effect, 100 complete control)
Method in brief: as §1

[12] = tested on: windgrass (Apera spica-venti); assay: Test B postemergence plant response
Method in brief: (§2)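 Plants grown in peat/vermiculite medium were sprayed postemergence at 2–18 cm height (1- to 4-leaf stage). After 13–15 days in the greenhouse, response was rated visually against untreated controls on a 0–100 scale (0 no effect, 100 complete control).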

[13] = tested on: chickweed (Stellaria media); assay: Test B postemergence plant response
Method in brief: as §2

[14] = tested on: canarygrass (Phalaris minor); assay: Test B postemergence plant response
Method in brief: as §2

[15] = tested on: winter barley (Hordeum vulgare); assay: Test B postemergence plant response
Method in brief: as §2

[16] = 31 g ai/ha, postemergence, scale 0 to 100, 0 is no effect, 100 is complete control
[17] = 62 g ai/ha, postemergence, 0 is no effect, 100 is complete control, 13 to 15 days
[18] = Postemergence, 125 g ai/ha, scale 0 to 100 (0 no effect, 100 complete control)
[19] = Postemergence, 250 g ai/ha, scale 0 to 100 (0 no effect, 100 complete control)

## CCCn1c(-c2cccc(OC)c2)ncc(C(=O)C2=C(O)CCCC2=O)c1=O [Compound 100]
[1]; [16]
  Plant response rating, Crabgrass, Large: 55
[1]; [17]
  Crabgrass, Large plant response rating (0 to 100 scale): 60
[1]; [18]
  Plant response rating, Crabgrass, Large: 75
[1]; [19]
  Plant response rating, Crabgrass, Large: 80
[2]; [17]
  Surinam Grass plant response rating (0 to 100 scale): 65
[2]; 125 g ai/ha
  Plant response rating, Surinam Grass: 65
[2]; 250 g ai/ha
  Plant response rating, Surinam Grass: 75
[3]; [17]
  Ragweed plant response rating (0 to 100 scale): 70
[3]; 125 g ai/ha
  Plant response rating, Ragweed: 75
[3]; 250 g ai/ha
  Plant response rating, Ragweed: 80
Wild oat (Avena fatua); [16]
  Plant response rating, Oat, Wild: 0
Wild oat (Avena fatua); [17]
  Oat, Wild plant response rating (0 to 100 scale): 10
Wild oat (Avena fatua); [18]
  Plant response rating, Oat, Wild: 30
Wild oat (Avena fatua); [19]
  Plant response rating, Oat, Wild: 30
[4]; [16]
  Plant response rating, Blackgrass: 0
[4]; [17]
  Blackgrass plant response rating (0 to 100 scale): 5
[4]; [18]
  Plant response rating, Blackgrass: 10
[4]; [19]
  Plant response rating, Blackgrass: 40
[5]; [17]
  Cupgrass, Woolly plant response rating (0 to 100 scale): 65
[5]; 125 g ai/ha
  Plant response rating, Cupgrass, Woolly: 70
[5]; 250 g ai/ha
  Plant response rating, Cupgrass, Woolly: 75
Soybean (Glycine max); [17]
  Soybean plant response rating (0 to 100 scale): 98
Soybean (Glycine max); 125 g ai/ha
  Plant response rating, Soybean: 100
Soybean (Glycine max); 250 g ai/ha
  Plant response rating, Soybean: 100
[6]; [16]
  Plant response rating, Bermudagrass: 70
[6]; [17]
  Bermudagrass plant response rating (0 to 100 scale): 70
[6]; [18]
  Plant response rating, Bermudagrass: 75
[6]; [19]
  Plant response rating, Bermudagrass: 85
[7]; [17]
  Ryegrass, Italian plant response rating (0 to 100 scale): 5
[7]; 125 g ai/ha
  Plant response rating, Ryegrass, Italian: 10
[7]; 250 g ai/ha
  Plant response rating, Ryegrass, Italian: 50
Corn (Zea mays); [16]
  Plant response rating, Corn: 0
Corn (Zea mays); [17]
  Corn plant response rating (0 to 100 scale): 10
Corn (Zea mays); [18]
  Plant response rating, Corn: 20
Corn (Zea mays); [19]
  Plant response rating, Corn: 45
[8]; [16]
  Plant response rating, Lambsquarters: 95
[8]; [17]
  Lambsquarters plant response rating (0 to 100 scale): 98
[8]; [18]
  Plant response rating, Lambsquarters: 98
[8]; [19]
  Plant response rating, Lambsquarters: 98
[9]; [17]
  Velvetleaf plant response rating (0 to 100 scale): 70
[9]; 125 g ai/ha
  Plant response rating, Velvetleaf: 70
[9]; 250 g ai/ha
  Plant response rating, Velvetleaf: 85
[10]; [16]
  Plant response rating, Johnsongrass: 0
[10]; [17]
  Johnsongrass plant response rating (0 to 100 scale): 5
[10]; [18]
  Plant response rating, Johnsongrass: 10
[10]; [19]
  Plant response rating, Johnsongrass: 25
[11]; [17]
  Nutsedge, Yellow plant response rating (0 to 100 scale): 5
[11]; 125 g ai/ha
  Plant response rating, Nutsedge, Yellow: 15
[11]; 250 g ai/ha
  Plant response rating, Nutsedge, Yellow: 40
[12]; [17]
  Windgrass plant response rating (0 to 100 scale): 40
[12]; [18]
  Plant response rating, Windgrass: 45
[13]; [16]
  Plant response rating, Chickweed: 75
[13]; [17]
  Chickweed plant response rating (0 to 100 scale): 75
[13]; [18]
  Plant response rating, Chickweed: 95
[13]; [19]
  Plant response rating, Chickweed: 100
[14]; [16]
  Plant response rating, Canarygrass: 0
[14]; [17]
  Canarygrass plant response rating (0 to 100 scale): 5
[14]; [18]
  Plant response rating, Canarygrass: 5
[14]; [19]
  Plant response rating, Canarygrass: 10
[15]; [16]
  Plant response rating, Barley: 5
[15]; [17]
  Barley plant response rating (0 to 100 scale): 20
[15]; [18]
  Plant response rating, Barley: 30
[15]; [19]
  Plant response rating, Barley: 50
